# Laboratory results as given in the supplement of paper PMC10307832.
# Experiments:
# Test in all cases: relative viability (nuclei count vs DMSO), 5 days (fraction); higher = more cells survive
# 17-AAG + Bortezomib = compound: C=CCNC1=C2C[C@@H](C)C[C@H](OC)[C@H](O)[C@@H](C)/C=C(\C)[C@H](OC(N)=O)[C@@H](OC)/C=C\C=C(/C)C(=O)NC(=CC1=O)C2=O [17-AAG] + CC(C)C[C@H](NC(=O)[C@H](Cc1ccccc1)NC(=O)c1cnccn1)B(O)O [Bortezomib] (partner 0.002 µM)
# Procedure, shortened: (§1)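 Relative viability was taken as the ratio of nuclei in treated wells to nuclei in vehicle wells. Lung cancer cell lines in 1536-well plates received compounds by pin tool one day after seeding, either one drug alone or a fixed anchor-drug dose plus five library-drug doses (not always all listed) in √10 steps. Nuclei were counted on 4× images after 5 days of treatment, and values are medians of duplicate plates.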
# 17-AAG + Tozasertib = compound: C=CCNC1=C2C[C@@H](C)C[C@H](OC)[C@H](O)[C@@H](C)/C=C(\C)[C@H](OC(N)=O)[C@@H](OC)/C=C\C=C(/C)C(=O)NC(=CC1=O)C2=O [17-AAG] + Cc1cc(Nc2cc(N3CCN(C)CC3)nc(Sc3ccc(NC(=O)C4CC4)cc3)n2)n[nH]1 [Tozasertib] (partner 0.1 µM)
# Procedure, shortened: as §1
# 17-AAG + AZD7762 = compound: C=CCNC1=C2C[C@@H](C)C[C@H](OC)[C@H](O)[C@@H](C)/C=C(\C)[C@H](OC(N)=O)[C@@H](OC)/C=C\C=C(/C)C(=O)NC(=CC1=O)C2=O [17-AAG] + NC(=O)Nc1cc(-c2cccc(F)c2)sc1C(=O)N[C@H]1CCCNC1 [AZD7762] (partner 0.2 µM)
# Procedure, shortened: as §1
# 17-AAG + Decitabine = compound: C=CCNC1=C2C[C@@H](C)C[C@H](OC)[C@H](O)[C@@H](C)/C=C(\C)[C@H](OC(N)=O)[C@@H](OC)/C=C\C=C(/C)C(=O)NC(=CC1=O)C2=O [17-AAG] + Nc1ncn([C@H]2C[C@H](O)[C@@H](CO)O2)c(=O)n1 [Decitabine] (partner 2 µM)
# Procedure, shortened: as §1
Cell Line,relative viability (17-AAG + Bortezomib; first compound 0.00128 µM),relative viability (17-AAG + Bortezomib; first compound 0.004048 µM),relative viability (17-AAG + Bortezomib; first compound 0.0128 µM),relative viability (17-AAG + Bortezomib; first compound 0.04048 µM),relative viability (17-AAG + Bortezomib; first compound 0.128 µM),relative viability (17-AAG + Tozasertib; first compound 0.00128 µM),relative viability (17-AAG + Tozasertib; first compound 0.004048 µM),relative viability (17-AAG + Tozasertib; first compound 0.0128 µM),relative viability (17-AAG + Tozasertib; first compound 0.04048 µM),relative viability (17-AAG + Tozasertib; first compound 0.128 µM),relative viability (17-AAG + AZD7762; first compound 0.00128 µM),relative viability (17-AAG + AZD7762; first compound 0.004048 µM),relative viability (17-AAG + AZD7762; first compound 0.0128 µM),relative viability (17-AAG + AZD7762; first compound 0.04048 µM),relative viability (17-AAG + AZD7762; first compound 0.128 µM),relative viability (17-AAG + Decitabine; first compound 0.00128 µM),relative viability (17-AAG + Decitabine; first compound 0.004048 µM),relative viability (17-AAG + Decitabine; first compound 0.0128 µM),relative viability (17-AAG + Decitabine; first compound 0.04048 µM),relative viability (17-AAG + Decitabine; first compound 0.128 µM)
NCI-H1355,1.21,1.11,1.28,0.26,0.144,0.554,0.583,0.543,0.555,0.167,0.795,0.682,0.311,0.236,0.144,0.35,0.345,0.361,0.246,0.183
NCI-H1975,0.445,0.34,0.149,0.145,0.119,0.796,0.587,0.145,0.12,0.0964,0.753,0.656,0.331,0.203,0.216,0.378,0.396,0.266,0.175,0.14
NCI-H727,0.795,0.766,0.784,0.322,0.229,0.569,0.682,0.53,0.453,0.25,0.6,0.491,0.56,0.298,0.305,0.871,0.915,0.875,0.538,0.411
HCC-366,0.949,0.785,0.0604,0.0267,0.0245,0.191,0.22,0.268,0.044,0.0391,0.281,0.402,0.045,0.0325,0.0323,0.306,0.393,0.08,0.0528,0.0434
HOP-62,0.701,0.725,0.748,0.46,0.117,0.363,0.466,0.386,0.212,0.17,0.733,0.416,0.256,0.11,0.0928,0.24,0.238,0.25,0.167,0.172
LU99A,1.06,1.05,0.672,0.445,0.119,0.288,0.345,0.399,0.276,0.132,0.372,0.284,0.115,0.179,0.074,0.917,0.915,0.863,0.749,0.213
NCI-H650,0.78,0.99,0.669,0.236,0.204,0.698,0.675,0.702,0.584,0.153,0.882,1.11,0.63,0.324,0.263,0.315,0.339,0.384,0.302,0.196
A-427,1.01,1.05,0.965,0.921,0.625,0.21,0.221,0.238,0.257,0.186,0.819,0.798,0.618,0.268,0.234,0.55,0.528,0.561,0.395,0.306
NCI-H460,1.03,0.677,0.0227,0.0175,0.0128,0.478,0.521,0.0911,0.0297,0.0214,0.549,0.676,0.0907,0.0489,0.0524,0.333,0.321,0.0276,0.0244,0.0254
NCI-H2126,1.09,1.1,0.993,1.06,0.255,0.9,0.842,0.44,0.26,0.298,0.977,0.975,0.885,0.265,0.231,0.556,0.631,0.616,0.622,0.456
HCC-44,0.865,0.854,0.903,0.466,0.142,0.898,0.753,0.293,0.19,0.135,1,1.02,1.03,0.973,0.398,0.927,0.964,0.931,0.958,0.355
NCI-H441,0.506,0.395,0.199,0.181,0.14,0.723,0.609,0.321,0.235,0.15,1.07,1.02,0.669,0.118,0.108,0.275,0.219,0.121,0.118,0.137
EKVX,1.06,0.971,0.994,0.421,0.149,0.448,0.377,0.398,0.238,0.0984,0.817,0.726,0.669,0.435,0.162,0.351,0.284,0.257,0.162,0.139
NCI-H1734,0.917,0.897,0.734,0.269,0.145,0.272,0.293,0.224,0.161,0.125,0.547,0.53,0.268,0.214,0.131,0.502,0.536,0.46,0.242,0.142
ABC-1,0.356,0.348,0.355,0.287,0.246,0.163,0.2,0.185,0.207,0.175,0.902,0.726,0.844,0.835,0.498,1.08,1.16,1.24,1.2,0.666
